From PubChem BioAssay (NCI)
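Grown in 96-well plates, cells were treated for 48 hours with each compound at five concentrations. Insufficient inhibition: endpoint recorded as highest concentration tested. TGI: total growth inhibition.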

Experiments:
Assay in all cases: NCI tumour cell line growth inhibition, 48 h
M14 melanoma = test system: M14 melanoma
SNB-75 CNS = test system: SNB-75 CNS
TK-10 renal = test system: TK-10 renal
SK-OV-3 ovarian = test system: SK-OV-3 ovarian
SF-539 CNS = test system: SF-539 CNS
OVCAR-8 ovarian = test system: OVCAR-8 ovarian
HS 578T breast = test system: HS 578T breast
HOP-62 NSCLC = test system: HOP-62 NSCLC
MDA-N = test system: MDA-N
DU-145 prostate = test system: DU-145 prostate
HOP-92 NSCLC = test system: HOP-92 NSCLC
HOP-18 NSCLC = test system: HOP-18 NSCLC
XF 498 CNS = test system: XF 498 CNS
DMS 273 small cell lung = test system: DMS 273 small cell lung
DLD-1 colon = test system: DLD-1 colon
SNB-78 CNS = test system: SNB-78 CNS
SN12K1 renal = test system: SN12K1 renal
P388/ADR leukemia = test system: P388/ADR leukemia
DMS 114 small cell lung = test system: DMS 114 small cell lung
ACHN renal = test system: ACHN renal

SMILES	TGI (M14 melanoma)	TGI (SNB-75 CNS)	TGI (TK-10 renal)	TGI (SK-OV-3 ovarian)	TGI (SF-539 CNS)	TGI (OVCAR-8 ovarian)	TGI (HS 578T breast)	TGI (HOP-62 NSCLC)	TGI (MDA-N)	TGI (DU-145 prostate)	TGI (HOP-92 NSCLC)	TGI (HOP-18 NSCLC)	TGI (XF 498 CNS)	TGI (DMS 273 small cell lung)	TGI (DLD-1 colon)	TGI (SNB-78 CNS)	TGI (SN12K1 renal)	TGI (P388/ADR leukemia)	TGI (DMS 114 small cell lung)	TGI (ACHN renal)
O=C1CC(=O)c2c(O)cc(O)c(c2O)-c2c(ccc(O)c2O)C2=CC(=O)c3c(O)cc(O)c(c3O2)-c2c1ccc(O)c2O (tested in a mixture with another compound)	> 50 µM	> 50 µM	> 50 µM	> 50 µM	> 50 µM	> 50 µM	> 50 µM	> 50 µM	> 50 µM	> 50 µM	> 50 µM									
CCCCCCCCCCCCCCCCSCC(COC)COP(=O)([O-])OCC[N+](C)(C)C (configuration not stated)		14.3 µM		28.6 µM	29.7 µM	22.3 µM		15.6 µM			5.18 µM	16.5 µM	19.8 µM	3.9 µM	11.2 µM	26.1 µM	24.2 µM	15.2 µM	20.8 µM	
CC(=O)NCCC1CN(C(=O)/C=C\C#C[Si](C)(C)C)c2ccccc21 (configuration not stated)	45.5 µM		> 100 µM	> 100 µM	73.8 µM	> 100 µM	> 100 µM		> 100 µM	> 100 µM	> 100 µM									> 100 µM
CCOC(=O)c1sc2nc(SC)nc3c2c1NC(=O)CN3c1cccc(F)c1	50 µM		86.8 µM	37.4 µM	15.7 µM	30.6 µM	59.7 µM	28.3 µM	> 100 µM	52.7 µM	55.6 µM									27.3 µM
O=C(NCCCCCCNC(=O)n1cc(F)c(=O)[nH]c1=O)NCCCOCCOCCCNC(=O)C(O)C(O)C(O)C(O)CO (configuration not stated)		> 2.5 µM		> 2.5 µM	> 2.5 µM	> 2.5 µM		> 2.5 µM			> 2.5 µM	> 2.5 µM	> 2.5 µM	> 2.5 µM	> 2.5 µM	> 2.5 µM	> 2.5 µM	> 2.5 µM	> 2.5 µM	
C/C(=N\NS(=O)(=O)c1ccccc1)c1ccccc1		> 100 µM		> 100 µM	> 100 µM	> 100 µM		> 100 µM			> 100 µM	> 100 µM	> 100 µM	> 100 µM	> 100 µM	> 100 µM	> 100 µM	> 100 µM	> 100 µM	
O=C(CC/C=C(/CS(=O)(=O)c1ccccc1)S(=O)(=O)c1ccccc1)c1ccccc1	> 100 µM	> 100 µM	> 100 µM	> 100 µM	> 100 µM	> 100 µM		> 100 µM			> 100 µM	> 100 µM	> 100 µM	> 100 µM	> 100 µM				83.4 µM	> 100 µM
CC(=O)OCC1OC(n2cc(F)c(=O)[nH]c2=O)C(N)C(OC(C)=O)C1OC(C)=O (configuration not stated)		> 100 µM		> 100 µM	> 100 µM	> 100 µM		> 100 µM			> 100 µM	> 100 µM	> 100 µM	> 100 µM	> 100 µM	> 100 µM	> 100 µM	> 100 µM	> 100 µM	
